{"source": "patent US20050148593A1", "about": "“Compounds, compositions, and methods” (priority 2003, published 2005)", "origin": "cited, not measured here", "system": "A549 cells", "details": "data provided by National Cancer Institute, Developmental Therapeutic Program", "data": [{"molecule": "O=c1[nH]cc(F)c(=O)[nH]1", "note": "[5-fluorouracil]", "values": [{"measurement": "GI50", "value": 1000, "unit": "nM"}]}, {"molecule": "COc1cccc2c1C(=O)c1c(O)c3c(c(O)c1C2=O)C[C@@](O)(C(=O)CO)C[C@@H]3O[C@H]1C[C@H](N)[C@H](O)[C@H](C)O1", "note": "[doxorubicin]", "values": [{"measurement": "GI50", "value": 63, "unit": "nM"}]}, {"molecule": "NC(=O)NO", "note": "[hydroxyurea]", "values": [{"measurement": "GI50", "value": 500000, "unit": "nM"}]}, {"molecule": "CC(=O)O[C@H]1C(=O)[C@@]2(C)[C@H]([C@H](OC(=O)c3ccccc3)[C@]3(O)C[C@H](OC(=O)[C@H](O)[C@@H](NC(=O)c4ccccc4)c4ccccc4)C(C)=C1C3(C)C)[C@]1(OC(C)=O)CO[C@@H]1C[C@@H]2O", "note": "[paclitaxel]", "values": [{"measurement": "GI50", "value": 4, "unit": "nM"}]}]}
